Measured values as given in patent publication US11149030B2, “Plants having increased tolerance to herbicides” (BASF AGRO B.V., priority 2016, dated 2021).

System: transgenic T2 Arabidopsis plants
Assay: Greenhouse spray of transgenic T2 Arabidopsis plants, herbicide injury 0 to 100% phytotox rating (Table A)
Type: in vivo
Details: 14 days after treatment
Method: Additionally, transgenic T2 Arabidopsis plants are tested for improved tolerance to herbicides in greenhouse studies with the following herbicides: methyl 2-[2-chloro-5-[3-chloro-5-(trifluoromethyl)-2-pyridyl]-4-fluoro-phenoxy]-2-methoxy-acetate, and photosynthesis inhibitor diuron as negative control.
Table A: Transgenic T2 Arabidopsis plants, four weeks old, were sprayed in the greenhouse with the indicated amount of compound+1% (v/v) MSO. Herbicide injury was evaluated 14 days after treatment with a 0 to 100% phytotox rating scale where 0 is no injury relative to an unsprayed wild type check and 100% is completely dead.

## COC(=O)C(OC)Oc1cc(-c2ncc(C(F)(F)F)cc2Cl)c(F)cc1Cl (stereo not shown) [methyl 2-[2-chloro-5-[3-chloro-5-(trifluoromethyl)-2-pyridyl]-4-fluoro-phenoxy]-2-methoxy-acetate]
Construct AMATU_PPO2 L397Q_F420M, 50 g ai/ha + 1% (v/v) MSO
  Herbicide injury, 0 to 100% phytotox rating: 45%
Construct AMATU_PPO2 L397Q_F420M, 100 g ai/ha + 1% (v/v) MSO
  Herbicide injury, 0 to 100% phytotox rating: 61%
Construct AMATU_PPO2 L397Q_F420M, 200 g ai/ha + 1% (v/v) MSO
  Herbicide injury, 0 to 100% phytotox rating: 73%
Construct AMATU_PPO2 L397Q_F420V, 50 g ai/ha + 1% (v/v) MSO
  Herbicide injury, 0 to 100% phytotox rating: 69%
Construct AMATU_PPO2 L397Q_F420V, 100 g ai/ha + 1% (v/v) MSO
  Herbicide injury, 0 to 100% phytotox rating: 66%
Construct AMATU_PPO2 L397Q_F420V, 200 g ai/ha + 1% (v/v) MSO
  Herbicide injury, 0 to 100% phytotox rating: 83%
Construct AMATU_PPO2 R128A_F420V, 50 g ai/ha + 1% (v/v) MSO
  Herbicide injury, 0 to 100% phytotox rating: 51%
Construct AMATU_PPO2 R128A_F420V, 100 g ai/ha + 1% (v/v) MSO
  Herbicide injury, 0 to 100% phytotox rating: 69%
Construct AMATU_PPO2 R128A_F420V, 150 g ai/ha + 1% (v/v) MSO
  Herbicide injury, 0 to 100% phytotox rating: 73%
Construct AMATU_PPO2 R128I_F420V, 50 g ai/ha + 1% (v/v) MSO
  Herbicide injury, 0 to 100% phytotox rating: 64%
Construct AMATU_PPO2 R128I_F420V, 100 g ai/ha + 1% (v/v) MSO
  Herbicide injury, 0 to 100% phytotox rating: 66%
Construct AMATU_PPO2 R128I_F420V, 200 g ai/ha + 1% (v/v) MSO
  Herbicide injury, 0 to 100% phytotox rating: 80%
Construct AMATU_PPO2 R128L_F420L, 50 g ai/ha + 1% (v/v) MSO
  Herbicide injury, 0 to 100% phytotox rating: 18%
Construct AMATU_PPO2 R128L_F420L, 100 g ai/ha + 1% (v/v) MSO
  Herbicide injury, 0 to 100% phytotox rating: 30%
Construct AMATU_PPO2 R128L_F420L, 200 g ai/ha + 1% (v/v) MSO
  Herbicide injury, 0 to 100% phytotox rating: 56%
Construct AMATU_PPO2 R128M_F420I, 50 g ai/ha + 1% (v/v) MSO
  Herbicide injury, 0 to 100% phytotox rating: 63%
Construct AMATU_PPO2 R128M_F420I, 100 g ai/ha + 1% (v/v) MSO
  Herbicide injury, 0 to 100% phytotox rating: 83%
Construct AMATU_PPO2 R128M_F420I, 200 g ai/ha + 1% (v/v) MSO
  Herbicide injury, 0 to 100% phytotox rating: 91%
Construct AMATU_PPO2 R128M_F420L, 50 g ai/ha + 1% (v/v) MSO
  Herbicide injury, 0 to 100% phytotox rating: 30%
Construct AMATU_PPO2 R128M_F420L, 100 g ai/ha + 1% (v/v) MSO
  Herbicide injury, 0 to 100% phytotox rating: 60%
Construct AMATU_PPO2 R128M_F420L, 200 g ai/ha + 1% (v/v) MSO
  Herbicide injury, 0 to 100% phytotox rating: 73%
Construct AMATU_PPO2 R128M_F420M, 50 g ai/ha + 1% (v/v) MSO
  Herbicide injury, 0 to 100% phytotox rating: 100%
Construct AMATU_PPO2 R128M_F420M, 100 g ai/ha + 1% (v/v) MSO
  Herbicide injury, 0 to 100% phytotox rating: 85%
Construct AMATU_PPO2 R128M_F420M, 200 g ai/ha + 1% (v/v) MSO
  Herbicide injury, 0 to 100% phytotox rating: 100%
Construct AMATU_PPO2 R128M_F420V, 50 g ai/ha + 1% (v/v) MSO
  Herbicide injury, 0 to 100% phytotox rating: 64%
Construct AMATU_PPO2 R128M_F420V, 100 g ai/ha + 1% (v/v) MSO
  Herbicide injury, 0 to 100% phytotox rating: 75%
Construct AMATU_PPO2 R128M_F420V, 200 g ai/ha + 1% (v/v) MSO
  Herbicide injury, 0 to 100% phytotox rating: 93%
Construct Arabidopsis PPO1 S305L_Y426M, 50 g ai/ha + 1% (v/v) MSO
  Herbicide injury, 0 to 100% phytotox rating: 49%
Construct Arabidopsis PPO1 S305L_Y426M, 100 g ai/ha + 1% (v/v) MSO
  Herbicide injury, 0 to 100% phytotox rating: 100%
Construct Arabidopsis PPO1 S305L_Y426M, 150 g ai/ha + 1% (v/v) MSO
  Herbicide injury, 0 to 100% phytotox rating: 100%
Construct CHLSP_PPO_wt_tpFNR (CHLSP_PPO SEQ ID NO: 256), 50 g ai/ha + 1% (v/v) MSO
  Herbicide injury, 0 to 100% phytotox rating: 91%
Construct CHLSP_PPO_wt_tpFNR (CHLSP_PPO SEQ ID NO: 256), 100 g ai/ha + 1% (v/v) MSO
  Herbicide injury, 0 to 100% phytotox rating: 97%
Construct CHLSP_PPO_wt_tpFNR (CHLSP_PPO SEQ ID NO: 256), 200 g ai/ha + 1% (v/v) MSO
  Herbicide injury, 0 to 100% phytotox rating: 95%
Construct OPITE_PPO_wt_tpFNR (OPITE_PPO SEQ ID NO: 249), 50 g ai/ha + 1% (v/v) MSO
  Herbicide injury, 0 to 100% phytotox rating: 100%
Construct OPITE_PPO_wt_tpFNR (OPITE_PPO SEQ ID NO: 249), 100 g ai/ha + 1% (v/v) MSO
  Herbicide injury, 0 to 100% phytotox rating: 100%
Construct OPITE_PPO_wt_tpFNR (OPITE_PPO SEQ ID NO: 249), 200 g ai/ha + 1% (v/v) MSO
  Herbicide injury, 0 to 100% phytotox rating: 100%
Construct hemG_tp_FNR (SEQ ID NO: 245), 50 g ai/ha + 1% (v/v) MSO
  Herbicide injury, 0 to 100% phytotox rating: 96%
Construct hemG_tp_FNR (SEQ ID NO: 245), 100 g ai/ha + 1% (v/v) MSO
  Herbicide injury, 0 to 100% phytotox rating: 100%
Construct hemG_tp_FNR (SEQ ID NO: 245), 200 g ai/ha + 1% (v/v) MSO
  Herbicide injury, 0 to 100% phytotox rating: 99%
Construct hemG_tp_long AMATU (SEQ ID NO: 246), 50 g ai/ha + 1% (v/v) MSO
  Herbicide injury, 0 to 100% phytotox rating: 68%
Construct hemG_tp_long AMATU (SEQ ID NO: 246), 100 g ai/ha + 1% (v/v) MSO
  Herbicide injury, 0 to 100% phytotox rating: 75%
Construct hemG_tp_long AMATU (SEQ ID NO: 246), 200 g ai/ha + 1% (v/v) MSO
  Herbicide injury, 0 to 100% phytotox rating: 79%
Non transformed Arabidopsis, 50 g ai/ha + 1% (v/v) MSO
  Herbicide injury, 0 to 100% phytotox rating: 100%
Non transformed Arabidopsis, 100 g ai/ha + 1% (v/v) MSO
  Herbicide injury, 0 to 100% phytotox rating: 100%
Non transformed Arabidopsis, 150 g ai/ha + 1% (v/v) MSO
  Herbicide injury, 0 to 100% phytotox rating: 100%
Non transformed Arabidopsis, 200 g ai/ha + 1% (v/v) MSO
  Herbicide injury, 0 to 100% phytotox rating: 100%
